Data published in patent publication US20240076347A1, “METHODS FOR PREVENTING FUNGAL INFECTIONS” (Cidara Therapeutics, Inc., priority 2016, published 2024).
“And” between values parts separate entries of the source, which are not always exact repeats. Identical values can stand only once. Like-named read-outs stand apart in the source and are kept apart here. Numbered stars: 1 amine (or outer) side, 2 acyl side, 3 side chain; on linkers, the order of the positions; unused ones are H or OH. Bridge positions count the residues as written; N and C are the ends. Square brackets hold non-standard residues; d marks the D form. Peptide text beside a SMILES is read from it. * marks the point of attachment. ξ: configuration not given here. Orn(4R-OH,5R-OCH2CH2NMe3+) = C[N+](C)(C)CCO[C@@H](N[*:3])[C@H](O)C[C@H](N[*:1])C(=O)[*:2]; pTerphenylCO(4''-OnC5H11) = CCCCCOc1ccc(-c2ccc(-c3ccc(C(=O)*)cc3)cc2)cc1; hTyr(3S-OH,4S-OH) = N[C@H](C(=O)O)[C@H](O)[C@@H](O)c1ccc(O)cc1; X1 = C[C@H]1CN([*:1])C(C(=O)[*:2])C1O; Hyp = O=C(O)[C@@H]1C[C@@H](O)CN1; ξT = CC(O)C(N)C(=O)O

What was measured:
[1] = Plasma and lung epithelial lining fluid (ELF) pharmacokinetics in ICR mice; format: in vivo; conditions: 20 mg/kg IP; for Kp: ip, 20 mg/kg
Method: At pre-dose, 1, 3, 6, 12, 24, 48, and 72 hours post-dose, 3 mice/timepoint were anesthetized/euthanized for blood collection (plasma) and bronchoalveolar lavage fluid (BALF) collection with 2×0.5 mL flushes of saline. Urea levels for plasma/BALF normalization for the volume of lung epithelial lining fluid (ELF) calculation were quantified using a commercially-available spectrophotometry-based assay. CD101 concentrations in plasma/BALF samples were measured by LC with electrospray ionization tandem mass spectrometric (LC-MS/MS) detection.
Urea for plasma/BALF normalization for ELF volume were quantified using spectrophotometry. CD101 concentrations in plasma/BALF samples were measured by LC-MS/MS. Total plasma concentrations were corrected for protein binding (99.2%).

[2] = test system: C. parapsilosis; experiment: Neutropenic murine disseminated candidiasis model, PK/PD target determination; format: in vivo, Candida parapsilosis; conditions: for Static dose: single IP dose, 168 h
Method: Infection model. A neutropenic, murine, disseminated candidiasis model was used for the treatment studies. The mice were rendered neutropenic (polymorphonuclear cell count, <100/mm3) by injecting 150 mg/kg of cyclophosphamide (Mead Johnson Pharmaceuticals, Evansville, IN) subcutaneously 4 days before infection, 100 mg/kg of cyclophosphamide 1 day before infection, and additional cyclophosphamide doses (100 mg/kg) on Day 2 and Day 4 after infection to ensure neutropenia throughout the 168 h (7 d) study period. Three mice were included in each treatment and control group.
The organisms were subcultured on SDA plates 24 h prior to infection. The inoculum was prepared by placing 3 to 5 colonies into 5 ml of sterile pyrogen-free 0.15 M NaCl warmed to 35° C. The final inoculum was adjusted to a 0.6 transmittance at 530 nm. The fungal count of the inoculum determined by viable counts on SDA was 6.1±0.2 log10 CFU/ml.
Disseminated infection with the Candida strains was achieved by injection of 0.1 ml of the inoculum via the lateral tail vein 2 h prior to the start of antifungal therapy. At the end of the study period, the animals were sacrificed by CO2 asphyxiation. The kidneys of each mouse were aseptically removed and placed in 0.15 M NaCl at 4° C. The kidneys were homogenized and serially diluted 1:10, and the aliquots were plated onto SDA for viable fungal colony counts after incubation for 24 h at 35° C. The lower limit of detection was 100 CFU/ml. The results are expressed as the mean CFU/kidney for three mice.
Treatment efficacy and pharmacodynamic target determination of CD101. Neutropenic mice were infected with one of 10 Candida strains as described above. […] Five dose levels that varied from 0.25 to 64 mg/kg were administered once in a 0.2-ml volume by IP route for the 168 h study period. Due to enhanced effect against single isolate, additional studies at 0.0156 and 0.0625 mg/kg was examined for C. glabrata 5592. Groups of three mice were used for each dosing regimen and control group. At the end of the treatment period (168 h), the mice were euthanized, and their kidneys were immediately processed for CFU determination as described above.
Data analysis. A sigmoid dose-effect (Hill) model was used to measure the in vivo potency of CD101. The efficacy endpoints included the dose level required to produce a 24 h net static effect (no change in organism burden compared to that at the start of therapy) and the dose required to achieve a 1-log10 reduction in colony counts (relative to the burden at the start of therapy), when achieved. The maximum response (Emax) was measured as the difference in the number of CFU/kidney relative to that of the untreated control animals. The doses associated with the stasis and 1-log10 endpoint for each strain was calculated using the equation: log10 D=[log10 (E/(Emax−E))/N]+log10 ED50, where D is the drug dose, E is the control growth in untreated animals, Emax is the maximal effect, Nis the slope of the dose-response relationship, and ED50 is the dose needed to achieve 50% of the maximal effect. The associated AUC/MIC targets were then calculated for each strain. […] The calculations were performed using both total and free drug concentrations. The coefficient of determination (R^2) was used to estimate the variance that might be due to regression with the PK/PD index. Kruskal-Wallis one-way analysis of variance (ANOVA) was used to determine if the differences in PK/PD targets were significant between the species.

[3] = test system: C. glabrata; experiment: In vitro susceptibility testing (CLSI M27-A3); format: cell-based, Candida glabrata; conditions: Nakaseomyces glabratus, 24 h
Method: Strains. Ten clinical Candida strains were used for the in vivo treatment studies, including four C. albicans, three C. glabrata, and three C. parapsilosis strains (Table 18). This group was selected to encompass phenotypic variability in susceptibility to triazoles and echinocandins and based on similar fitness in the animal model as defined by the amount of growth in control animals over 24 h. The organisms were maintained, grown, and quantified on Sabouraud's dextrose agar (SDA) plates.
In vitro susceptibility testing. All isolates were tested in accordance with the standards in CLSI document M27-A3. The MICs were determined visually after 24 h of incubation as the lowest concentration of drug that causes a significant diminution (≥50%) of growth compared to controls. MICs were determined on three separate occasions in duplicate.

[4] = Clinical pharmacokinetics in healthy adults (Phase 1); format: in vivo, human; conditions: for average 24 h AUC (free drug) over a 7 day period / free drug AUC0-168: human
Excerpt: The in vitro activity of CD101 was previously evaluated as part of the SENTRY international surveillance program using CLSI broth microdilution methodology (M38-A2, M27-A3; Pfaller, et al 2017). […] These susceptibility data were then compared graphically to CD101 plasma concentrations from studies in healthy adults, adjusted for plasma protein binding. Nonclinical efficacy in a murine model of Pneumocystis pneumonia were also considered to evaluate CD101 doses for clinical investigation of antifungal prophylaxis.

[5] = Previous toxicology studies by the IV route; format: in vivo, cynomolgus monkeys; conditions: up to at least 30 mg/kg
[6] = only two strains achieved the endpoint

CCCCCOc1ccc(-c2ccc(-c3ccc(C(=O)N[C@H]4C[C@@H](O)[C@@H](OCC[N+](C)(C)C)NC(=O)C5C(O)[C@@H](C)CN5C(=O)[C@H]([C@@H](C)O)NC(=O)[C@H]([C@H](O)[C@@H](O)c5ccc(O)cc5)NC(=O)[C@@H]5C[C@@H](O)CN5C(=O)C(C(C)O)NC4=O)cc3)cc2)cc1 (stereo partly drawn) [CD101] ({pTerphenylCO(4''-OnC5H11)}-[Orn(4R-OH,5R-OCH2CH2NMe3+)][ξT][Hyp][hTyr(3S-OH,4S-OH)]T[X1]; lactam 1-C)
mean maximum ELF concentration [1]: 15.1 µg/mL | mean maximum plasma concentration [1]: 30.1 µg/mL | time of maximum ELF concentration [1]: 6 h and 4 h | time of maximum plasma concentration ([1]; first collection timepoint): 1 h | concentration at 72 h ([1]; ICR, mouse, lung epithelial lining fluid (ELF), intraperitoneal, at 72 h): 4000 ng/mL | Kp ([1]; ICR, mouse, lung epithelial lining fluid (ELF), free-drug (protein binding 99.2%), read-out: ELF/Plasma AUC ratio): 100 | Kp ([1]; ICR, mouse, lung epithelial lining fluid (ELF), read-out: AUC exposure ratios of ELF/plasma): 0.8 to 0.95 | Kp ([1]; ICR, mouse, lung epithelial lining fluid (ELF), total-drug, read-out: ELF/Plasma AUC ratio): 0.8 | half-life ([1]; ICR, mouse, lung epithelial lining fluid (ELF), read-out: ELF half-life (converted)): 31.9 h | AUC(0-t) ([1]; ICR, mouse, lung epithelial lining fluid (ELF), read-out: mean ELF AUC0-72): 606 µg·h/mL | AUC(0-inf) ([1]; ICR, mouse, lung epithelial lining fluid (ELF), read-out: mean ELF AUCinf): 802 µg·h/mL | AUC(0-t) ([1]; ICR, mouse, plasma, read-out: mean plasma AUC0-72): 762 µg·h/mL | AUC(0-inf) ([1]; ICR, mouse, plasma, read-out: mean plasma AUCinf): 848 µg·h/mL | half-life ([1]; ICR, mouse, plasma, read-out: plasma half-life (converted)): 21.1 h | Stasis 24 h Ave free drug AUC/MIC ([2]; 20423.072): 1.39 | Stasis free drug AUC0-168 h/MIC ([2]; 20423.072): 9.74 | Stasis total drug AUC0-168 h/MIC ([2]; 20423.072): 1217.49 | Static dose ([2]; 20423.072): 9.62 mg/kg | Stasis 24 h Ave free drug AUC/MIC ([2]; 20477.048): 3.82 | Stasis free drug AUC0-168 h/MIC ([2]; 20477.048): 26.72 | Stasis total drug AUC0-168 h/MIC ([2]; 20477.048): 3339.42 | Static dose ([2]; 20477.048): 52.96 mg/kg | median stasis 24 h free drug AUC/MIC target [2, 6]: 2.61 | median stasis free drug AUC0-168/MIC target [2, 6]: 18.2 | MIC ([3]; strain 5592): 0.125 µg/mL | MIC ([3]; strain 10956 (FKS2_HS1_F659V)): 1 µg/mL | MIC ([3]; strain 35315): 0.5 µg/mL | plasma concentrations relative to MEC90 ([4]; 400 mg and 200 mg): above the MEC90 for A. fumigatus for 7 days | mean unbound plasma concentrations relative to MIC90 ([4]; Phase 1 subjects, single dose of 400 mg): above the MIC90 for C. albicans for seven days | average 24 h AUC (free drug) over a 7 day period ([4]; 200 mg dose): ~2.2 µg·h/mL | free drug AUC0-168 ([4]; 200 mg dose): 15.4 µg·h/mL | average 24 h AUC (free drug) over a 7 day period ([4]; 400 mg dose): approximately 4.3 mg*h/L | free drug AUC0-168 ([4]; 400 mg dose): 30.2 µg·h/mL | safety and tolerability [5]: safe and well tolerated
